Measurements from patent publication US20180311204A1, “METHOD FOR PREVENTING OR TREATING HEART FAILURE” (GUANGZHOU MEDICAL UNIVERSITY, priority 2017, published 2018).

What was measured:
[1] = tested on: Myocardial Ischemia Rat Model; assay: Echocardiography in myocardial ischemia rat model (LAD ligation), effect of nobiletin on ventricle; assay type: in vivo; conditions: 21-day experiment, compared to the infarction group
[2] = tested on: Myocardial Ischemia Rat Model; assay: Determination of infarct size by TTC staining; assay type: in vivo; conditions: compared to the infarction group
Protocol: 60 rats were randomized into 6 groups: (i) sham group (Sham), n=10, (left anterior descending (LAD) coronary arteries of the rats were only laid upon sutures without ligation, and 0.5% Tween normal saline was injected intraperitoneally); (ii) infarction group (AMI), n=10, (LAD coronary arteries of the rats were ligated before 0.5% Tween normal saline was injected intraperitoneally); (iii) nobiletin group of low dosage (AMI+NOB-L, n=10; LAD coronary arteries of the rats were ligated before 7.5 mg/kg nobiletin was injected intraperitoneally); (v) nobiletin group of medium dosage (AMI+NOB-M), n=10, (LAD coronary arteries of the rats were ligated before 15 mg/kg nobiletin was injected intraperitoneally); (vi) nobiletin group of high dosage (AMI+NOB-H), n=10, (LAD coronary arteries of the rats were ligated before 30 mg/kg nobiletin was injected intraperitoneally); (vii) enalapril group (AMI+Enalapril), n=10, (LAD coronary arteries of the rats were ligated before 10 mg/kg enalapril was given intragastrically); echocardiograms were taken after the 21-day experiment. Male SD rats were weighed and then anaesthetized by intraperitoneal injections of 10% chloral hydrate (300 mg/kg). The rats were fixed on a table lying on their back, each connected with an electrocardiography and 2-lead electrocardiograms (ECGs) were recorded. The rats were inserted with trachea cannulas and artificially ventilated with a ventilator (positive airway pressure, frequency: 70 times/min, Ti/(I:E)=5:4, VT: about 15 ml/kg). Sterilized the left parasternal skin on the third and forth intercostals regions, cut the skin and separated muscle layers trough blunt dissection, opened the thorax, then cut the pericardium to expose the left ventricle and the left auricle, the left ventricle coronary artery was seen descending from the middle of the left auricle to the anterior wall of the left ventricle (see FIG. 1). Using left coronary artery as a reference, between left auricle and pulmonary conus arteriosus, the left anterior descending (LAD) coronary arteries of the rats were ligated by NO. 6-0 sutures. ST segments rose in 2-lead electrocardiogram of the rat after LAD ligation (see FIG. 2), and myocardial ischemia symptoms such as the distal myocardial tissues turned pale after LAD ligation acted as an index of whether the ligation worked (see FIG. 3). Sham-treated rats underwent the same surgical procedure without the ligation of LAD coronary artery. […] When myocardial infarction occurs for some time, dehydrogenases in the cells were released and lost due to cell membrane damages. Because TTC is not deoxidized into a colored form, infarcted myocardium cannot be stained. […] (2) […]: Removed atriums and right ventricles, restored left ventricles were weighed and recorded. […] Weighed and recorded each slices. […]

[3] = tested on: H9C2 cells; assay: Apoptosis detection by Annexin V/PI staining in cardiomyocytes subjected to oxygen-glucose deprivation (OGD); assay type: cell-based; conditions: H9C2 cells with OGD treatment, 5, 10, 20, 40, 80 μM nobiletin, dose-dependent manner, versus OGD control
Protocol: In vitro, H9C2 cells with OGD treatment were used to model myocardial ischemia. OGD treatment: the cells were cultured and subjected to OGD when the density of the cells reached to 80%-90%. Collected the OGD-treated cells from the medium and rinsed trice with glucose-free EBSS, after that cultured the cells in the same medium at 37° C. in an anoxia chamber saturated with 94% N2/5% CO2/1% O2 for a preset time.
After previous procedures, the cells were digested with 0.25% trypsin and collected to stain with both fluorescein isothiocyanate (FITC) labeled […] (Annexin V-FITC) and PI (according to the manufacturer's protocol of Annexin V-FITC kits). Flow cytometry detection was carried out immediately under an excitation wavelength of […] to detect 1×10^4 cells. PI emits light of a wavelength about 623 nm (red fluorescence) while FITC emits light of about 520 nm (green fluorescence). Analyzed the detection data by CELLQEST Software and the results were shown in scatter plots (see FIG. 9A-9F) and statistics (see FIG. 10).

[4] = AMI+Enalapril, 10 mg/kg intragastrically
[5] = enalapril group, 10 mg/kg intragastrically
[6] = AMI+NOB-H, 30 mg/kg intraperitoneally
[7] = AMI+NOB-M, 15 mg/kg intraperitoneally
[8] = nobiletin groups (7.5, 15, 30 mg/kg intraperitoneally)

Row | Compound | left ventricular ejection fraction (LVEF) [1, 4] | left ventricular fractional shortening (LVFS) [1, 4] | rise of left ventricular internal dimension, diastolic (LVIDD) [1, 4] | rise of left ventricular internal dimension, systolic (LVIDS) [1, 4] | infarct area percentages (FIG. 8) [2, 5] | white infarct areas in TTC-stained myocardium (FIG. 7) [2, 5] | left ventricular ejection fraction (LVEF) [1, 6] | left ventricular fractional shortening (LVFS) [1, 6] | rise of left ventricular internal dimension, diastolic (LVIDD) [1, 6] | rise of left ventricular internal dimension, systolic (LVIDS) [1, 6] | left ventricular ejection fraction (LVEF) [1, 7] | left ventricular fractional shortening (LVFS) [1, 7] | rise of left ventricular internal dimension, diastolic (LVIDD) [1, 7] | rise of left ventricular internal dimension, systolic (LVIDS) [1, 7] | infarct area percentages (FIG. 8) [2, 8] | white infarct areas in TTC-stained myocardium (FIG. 7) [2, 8] | apoptosis resulting from OGD [3]
1 | CCOC(=O)[C@H](CCc1ccccc1)N[C@@H](C)C(=O)N1CCC[C@H]1C(=O)O [enalapril, reference compound] | significantly increased | significantly increased | no significant reduction | significantly reduced | lower | smaller |  |  |  |  |  |  |  |  |  |  | 
2 | COc1ccc(-c2cc(=O)c3c(OC)c(OC)c(OC)c(OC)c3o2)cc1OC [nobiletin] |  |  |  |  |  |  | significantly increased | significantly increased | no significant reduction | significantly reduced | significantly increased | significantly increased | no significant reduction | significantly reduced | lower | smaller | significantly reduced
